This is an account of results in US9204646B2, “Pyrazole tetrahydronaphthyl carboxamides” (BAYER CROPSCIENCE AG, priority 2012, dated 2015).

Like-named read-outs stand apart in the source and are kept apart here.

One data set relates to Alternaria brassicae. In words: In vivo preventive test on Alternaria brassicae (leaf spot on radish). As to conditions: preventive spray on radish plants, grading 6 days after contamination vs control plants. The protocol: Radish plants (“Pernod Clair” variety), sown in starter cups on a 50/50 peat soil-pozzolana substrate and grown at 17° C., are treated at the cotyledon stage by spraying with the active ingredient prepared as described above. Plants, used as controls, are treated with the mixture of acetone/tween/DMSO/water not containing the active material. After 24 hours, the plants are contaminated by spraying the cotyledons with an aqueous suspension of Alternaria brassicae spores (50 000 spores per ml). The spores are collected from a 15-day-old culture. The contaminated radish plants are incubated at 20° C. and at 100% relative humidity. Grading (% of efficacy) is carried out 6 days after the contamination, in comparison with the control plants.

The test system of a further data set is Botrytis cinerea. In words: In vivo preventive test on Botrytis cinerea (grey mould). As to conditions: preventive spray on gherkin plants, grading 4 to 5 days after contamination vs control plants. The protocol: Gherkin plants (“Vert petit de Paris” variety), sown in starter cups on a 50/50 peat soil-pozzolana substrate and grown at 24° C., are treated at the Z11 cotyledon stage by spraying with the active ingredient prepared as described above. Plants, used as controls, are treated with the mixture of acetone/tween/DMSO/water not containing the active material. After 24 hours, the plants are contaminated by spraying the cotyledons with an aqueous suspension of cryopreserved Botrytis cinerea spores (50 000 spores per ml). The spores are suspended in a nutrient solution composed of 10 g/L of PDB, 50 g/L of D-Fructose, 2 g/L of NH4NO3 and 1 g/L of KH2PO4. The contaminated gherkin plants are incubated at 17° C. and at 90% relative humidity. Grading (% of efficacy) is carried out 4 to 5 days after the contamination, in comparison with the control plants.

The nature of data set [1]: Measurement of log P values by HPLC on reversed phase columns (EEC directive 79/831 Annex V.A8). The format is physicochemical. The conditions noted are these: for logP: Table 1 active ingredients.
Another data set concerns Uromyces appendiculatus. In words: In vivo preventive test on Uromyces appendiculatus (bean rust). As to conditions: preventive spray on bean plants, grading 11 days after contamination vs control plants. The protocol: Bean plants (“Saxa” variety), sown in starter cups on a 50/50 peat soil-pozzolana substrate and grown at 24° C., are treated at the 2-leaf stage (9 cm height) by spraying with the active ingredient prepared as described above. Plants, used as controls, are treated with the mixture of acetone/tween/DMSO/water not containing the active material. After 24 hours, the plants are contaminated by spraying the leaves with an aqueous suspension of Uromyces appendiculatus spores (150 000 spores per ml). […] The contaminated bean plants are incubated for 24 hours at 20° C. and at 100% relative humidity, and then for 10 days at 20° C. and at 70-80% relative humidity. Grading (% of efficacy) is carried out 11 days after the contamination, in comparison with the control plants.

A further data set relates to Sphaerotheca fuliginea. In words: In vivo preventive test on Sphaerotheca fuliginea (powdery mildew on cucurbits). The conditions noted are these: preventive spray on gherkin plants, grading 12 days after contamination vs control plants. The protocol: Gherkin plants (“Vert petit de Paris” variety), sown in starter cups on a 50/50 peat soil-pozzolana substrate and grown at 24° C., are treated at the Z11 cotyledon stage by spraying with the active ingredient prepared as described above. Plants, used as controls, are treated with the mixture of acetone/tween/DMSO/water not containing the active material. After 24 hours, the plants are contaminated by spraying the cotyledons with an aqueous suspension of Sphaerotheca fuliginea spores (100 000 spores per ml). The spores are collected from infected plants. The contaminated gherkin plants are incubated at about 20° C. and at 70-80% relative humidity. Grading (% of efficacy) is carried out 12 days after the contamination, in comparison with the control plants.

A further data set deals with Puccinia recondita. Kind of data set: In vivo preventive test on Puccinia recondita (brown rust on wheat). As to conditions: preventive spray on wheat plants, grading 12 days after contamination vs control plants. The protocol: Wheat plants (“Scipion” variety), sown in starter cups on a 50/50 peat soil-pozzolana substrate and grown at 22° C., are treated at the 1-leaf stage (10 cm height) by spraying with the active ingredient prepared as described above. Plants, used as controls, are treated with the mixture of acetone/tween/DMSO/water not containing the active material. After 24 hours, the plants are contaminated by spraying the leaves with an aqueous suspension of Puccinia recondita spores (100 000 spores per ml). […] The contaminated wheat plants are incubated for 24 hours at 20° C. and at 100% relative humidity, and then for 10 days at 20° C. and at 70-80% relative humidity. Grading (% of efficacy) is carried out 12 days after the contamination, in comparison with the control plants.

A further data set concerns Septoria tritici. Kind of data set: In vivo preventive test on Septoria tritici (leaf spot on wheat). The conditions noted are these: dose of 500 ppm; preventive spray on wheat plants; grading 24 days after contamination vs control plants. The protocol:
Wheat plants (“Scipion” variety), sown in starter cups on a 50/50 peat soil-pozzolana substrate and grown at 22° C., are treated at the 1-leaf stage (10 cm height) by spraying with the active ingredient prepared as described above. Plants, used as controls, are treated with the mixture of acetone/tween/DMSO/water not containing the active material. After 24 hours, the plants are contaminated by spraying the leaves with an aqueous suspension of cryopreserved Septoria tritici spores (500 000 spores per ml). The contaminated wheat plants are incubated for 72 hours at 18° C. and at 100% relative humidity, and then for 21 days at 90% relative humidity. Grading (% of efficacy) is carried out 24 days after the contamination, in comparison with the control plants.

In the next data set the test system is Pyrenophora teres. Kind of data set: In vivo preventive test on Pyrenophora teres (net blotch on barley). The conditions noted are these: preventive spray on barley plants, grading 14 days after contamination vs control plants. The protocol:
Barley plants (“Plaisant” variety), sown in starter cups on a 50/50 peat soil-pozzolana substrate and grown at 22° C., are treated at the 1-leaf stage (10 cm height) by spraying with the active ingredient prepared as described above. Plants, used as controls, are treated with the mixture of acetone/tween/DMSO/water not containing the active material. After 24 hours, the plants are contaminated by spraying the leaves with an aqueous suspension of Pyrenophora teres spores (12 000 spores per ml). The spores are collected from a 12-day-old culture. The contaminated barley plants are incubated for 48 hours at 20° C. and at 100% relative humidity, and then for 12 days at 20° C. at 70-80% relative humidity. Grading (% of efficacy) is carried out 14 days after the contamination, in comparison with the control plants.

The mark [2] stands for this setting: method [a]: LC-MS at pH 2.7, 0.1% formic acid in water / acetonitrile, linear gradient 10% to 95% acetonitrile.
The mark [3] stands for this setting: reversed phase HPLC column, method [a]: LC-MS at pH 2.7, 0.1% formic acid in water / acetonitrile, linear gradient 10% to 95% acetonitrile, Table 2 intermediates of formula (III-a), read-out: logP.

Regarding `CON=C1CCCc2c(NC(=O)c3c(C(F)F)nn(C)c3F)cccc21` [Example 19], the Eff. % in the data set with Alternaria brassicae (dose of 500 ppm) and in the data set on Botrytis cinerea (dose of 500 ppm) was 96% throughout. Further, the logP in data set [1] (setting [2]) is 2.86[a].

`CC1(C)CCc2c(N)cccc2C1` [III-a-12, 6,6-dimethyl-5,6,7,8-tetrahydronaphthalen-1-amine]: the chromatographic logP in data set [1] (setting [3]) worked out at 1.86.

In the case of `CC1CCc2c(NC(=O)c3c(C(F)F)nn(C)c3Cl)cccc2C1(C)C` (racemic) [Example 15], the Eff. % in the data set with Uromyces appendiculatus (dose of 500 ppm) is recorded as 95%; in the data set on Sphaerotheca fuliginea (dose of 500 ppm), 70%; with Puccinia recondita (dose of 500 ppm) it was 98%; in the data set with Septoria tritici, 75%. Besides, the logP in data set [1] (setting [2]) is 4.29[a].

For the compound `CCON=C1CCCc2c(NC(=O)c3c(C(F)F)nn(C)c3Br)cccc21` [Example 20], the logP in data set [1] (setting [2]) is 3.57[a].

For `Cn1nc(C(F)F)c(C(=O)Nc2cccc3c2CCC(C)(C)C3)c1Br` [Example 23], the results for the Eff. % with Uromyces appendiculatus (dose of 500 ppm) and in the data set with Puccinia recondita (dose of 500 ppm) were 96% and 79%, respectively. The logP in data set [1] (setting [2]) is 4.04[a].

In the case of `Cn1nc(C(F)F)c(C(=S)Nc2cccc3c2CCC(C)(C)C3)c1Cl` [Example 33, 5-chloro-3-(difluoromethyl)-N-(6,6-dimethyl-5,6,7,8-tetrahydronaphthalen-1-yl)-1-methyl-1H-pyrazole-4-carbothioamide], the values for the Eff. % in the data set with Alternaria brassicae (dose of 100 ppm), in the data set on Uromyces appendiculatus (dose of 100 ppm) and in the data set with Puccinia recondita (dose of 100 ppm) were 75%, 99% and 94%, respectively. The chromatographic logP in data set [1] (pH 2.7) stood at 4.11.

Consider `CC1c2cccc(NC(=O)c3c(C(F)F)nn(C)c3Cl)c2CCC1(C)C` (racemic) [Example 11], for which the Eff. % in the data set on Uromyces appendiculatus (dose of 500 ppm) worked out at 100%; with Puccinia recondita (dose of 500 ppm) it was 98%. The logP in data set [1] (setting [2]) was 4.39[a].

Take `CCON=C1CCCc2c(NC(=O)c3c(C(F)F)nn(C)c3F)cccc21` [Example 18]: the Eff. % in the data set with Alternaria brassicae (dose of 500 ppm) is 83%; in the data set with Uromyces appendiculatus (dose of 500 ppm) it was 81%; with Pyrenophora teres (dose of 500 ppm) it was 92%. In addition, in data set [1] (setting [2]), the logP is 3.31[a].

With `CC1CCC(C)(C)c2cccc(NC(=O)c3c(C(F)F)nn(C)c3F)c21` (racemic) [Example 3], the Eff. % in the data set with Alternaria brassicae (dose of 500 ppm) came out at 93%; in the data set on Botrytis cinerea (dose of 500 ppm), 100%; in the data set on Uromyces appendiculatus (dose of 500 ppm), 100%; with Puccinia recondita (dose of 500 ppm), 94%. In data set [1] (setting [2]), the logP was 3.92[a].

As to `CCON=C1CCCc2c(NC(=O)c3c(C(F)F)nn(C)c3Cl)cccc21` [Example 21], the logP in data set [1] (setting [2]) was 3.55[a]. Besides, the Eff. % was 94% in the data set on Puccinia recondita (dose of 500 ppm) and 75% in the data set with Pyrenophora teres (dose of 500 ppm).

Turning to `CON=C1CCCc2c(NC(=O)c3c(C(F)F)nn(C)c3Cl)cccc21` [Example 28], in data set [1] (setting [2]), the logP was 3.09[a].

`C=C1c2cccc(NC(=O)c3c(C(F)F)nn(C)c3Cl)c2CCC1(C)C` [Example 5]: the results for the Eff. % in the data set with Botrytis cinerea (dose of 500 ppm), in the data set with Uromyces appendiculatus (dose of 500 ppm) and in the data set with Puccinia recondita (dose of 500 ppm) were 93%, 100% and 94%, respectively. For the same compound, the logP in data set [1] (setting [2]) is 4.14[a].

Take `CC1CCc2c(NC(=O)c3c(C(F)F)nn(C)c3Cl)cccc2C1C` (stereo not shown) [Example 7]: the figures for the Eff. % with Alternaria brassicae (dose of 500 ppm), in the data set with Uromyces appendiculatus (dose of 500 ppm) and in the data set on Puccinia recondita (dose of 500 ppm) were 97%, 100% and 100%, respectively. In addition, the logP in data set [1] (setting [2]) was 4.09[a].

As to `Cn1nc(C(F)F)c(C(=S)Nc2ccc(F)c3c2CCCC3(C)C)c1Cl` [Example 17], the Eff. % in the data set on Uromyces appendiculatus (dose of 500 ppm) and with Puccinia recondita (dose of 500 ppm) was 100% in each case. Also, in data set [1] (setting [2]), the logP is 4.24[a].

Regarding `CC1(C)CCCc2c(N)cccc21` [III-a-1, 5,5-dimethyl-5,6,7,8-tetrahydronaphthalen-1-amine], in data set [1] (setting [3]), the chromatographic logP was determined as 1.69.

Take `Cn1nc(C(F)F)c(C(=S)Nc2cccc3c2CCC(C)(C)C3)c1F` [Example 32]: the Eff. % amounted to 75% with Alternaria brassicae (dose of 100 ppm); 73% with Botrytis cinerea (dose of 100 ppm); 97% with Uromyces appendiculatus (dose of 100 ppm); 98% in the data set on Sphaerotheca fuliginea (dose of 100 ppm); 94% in the data set on Puccinia recondita (dose of 100 ppm); 83% with Pyrenophora teres (dose of 100 ppm). For the same compound, in data set [1] (setting [2]), the logP was 3.99[a].

Take `CC1CCc2c(NC(=O)c3c(C(F)F)nn(C)c3F)cccc2C1C` (stereo not shown) [Example 8]: the Eff. % with Alternaria brassicae (dose of 500 ppm) turned out to be 97%; in the data set on Uromyces appendiculatus (dose of 500 ppm), 99%; in the data set on Sphaerotheca fuliginea (dose of 500 ppm), 85%; in the data set with Puccinia recondita (dose of 500 ppm), 100%; in the data set on Pyrenophora teres (dose of 500 ppm), 71%. In addition, the logP in data set [1] (setting [2]) is 3.83[a].

As to `Cn1nc(C(F)F)c(C(=O)Nc2cccc3c2C(C)(C)CCC3)c1Cl` [Example 27], in data set [1] (setting [2]), the logP is 3.69[a].

On to `Cn1nc(C(F)F)c(C(=O)Nc2cccc3c2C(C)(C)CCC3)c1F` [Example 29], for which the logP in data set [1] (setting [2]) was 3.44[a].

Take `Cn1nc(C(F)F)c(C(=S)Nc2cccc3c2CCC(C)(C)C3)c1Br` [Example 31]: the logP in data set [1] (setting [2]) was 4.11[a].

Regarding `CC1CCC(C)(C)c2cccc(NC(=O)c3c(C(F)F)nn(C)c3Cl)c21` (racemic) [Example 4], the results for the Eff. % in the data set on Alternaria brassicae (dose of 500 ppm), in the data set with Uromyces appendiculatus (dose of 500 ppm) and with Puccinia recondita (dose of 500 ppm) were 92%, 99% and 94%, respectively. In addition, in data set [1] (setting [2]), the logP was 4.14[a].

Consider `Cn1nc(C(F)F)c(C(=O)Nc2ccc(F)c3c2CCCC3(C)C)c1Cl` [Example 16], for which the results for the Eff. % with Uromyces appendiculatus (dose of 500 ppm) and with Puccinia recondita (dose of 500 ppm) were 100% and 97%, respectively. The logP in data set [1] (setting [2]) was 4.01[a].

For the compound `Cn1nc(C(F)F)c(C(=O)Nc2ccc(F)c3c2CCCC3(C)C)c1F` [Example 24], the values for the Eff. % in the data set with Alternaria brassicae (dose of 500 ppm), in the data set on Uromyces appendiculatus (dose of 500 ppm) and with Puccinia recondita (dose of 500 ppm) were 75%, 100% and 97%, respectively. Also, the logP in data set [1] (setting [2]) is 3.76[a].

Take `CON=C1CCCc2c(NC(=O)c3c(C(F)F)nn(C)c3Br)cccc21` [Example 26]: in data set [1] (setting [2]), the logP is 3.13[a].
